For data set [1], the target named is Vascular endothelial growth factor receptor 2 (Homo sapiens, UniProt P35968). Put plainly: Inhibition of KDR (unknown origin).
In data set [2] the target is T1, Phosphatidylinositol 4,5-bisphosphate 3-kinase catalytic subunit beta isoform (Homo sapiens, UniProt P42338). Put plainly: Inhibition of PI3Kbeta in human MDA-MB-468 cells assessed as inhibition of Akt phosphorylation at Ser-473 after 2 hrs by ELISA. Type of data set: cell-based. In general terms: An ELISA detects its analyte on a solid surface through an enzyme-linked reagent.

Data set [3] can be described thus: Octanol/buffer partition co-efficient, log D of the compound at pH 7.4 after 30 mins by shake-flask method. Type of data set: physicochemical.
In data set [4] the target is T2, Phosphatidylinositol 4,5-bisphosphate 3-kinase catalytic subunit alpha isoform (Homo sapiens, UniProt P42336). The data set is described as follows: Inhibition of recombinant human PI3Kalpha using PIP2/ATP as substrate preincubated for 20 mins followed by substrate addition measured after 80 mins by Kinase-Glo plus assay. In general terms: Kinase-Glo measures the ATP left after a reaction by luminescence.

For data set [5], the target named is T1, Phosphatidylinositol 4,5-bisphosphate 3-kinase catalytic subunit beta isoform. The data set is described as follows: Inhibition of recombinant human PI3Kbeta using PIP2/ATP as substrate preincubated for 20 mins followed by substrate addition measured after 80 mins by Kinase-Glo plus assay.
Data set [6] has as its target T2, Phosphatidylinositol 4,5-bisphosphate 3-kinase catalytic subunit alpha isoform. The data set is described as follows: Inhibition of PI3Kalpha in human BT474 cells assessed as inhibition of Akt phosphorylation at […] after 2 hrs by ELISA. Type of data set: cell-based, BT-474.
The target of data set [7] is T3, Phosphatidylinositol 4,5-bisphosphate 3-kinase catalytic subunit delta isoform (Homo sapiens, UniProt O00329).
T3 sequence (O00329 whole entry): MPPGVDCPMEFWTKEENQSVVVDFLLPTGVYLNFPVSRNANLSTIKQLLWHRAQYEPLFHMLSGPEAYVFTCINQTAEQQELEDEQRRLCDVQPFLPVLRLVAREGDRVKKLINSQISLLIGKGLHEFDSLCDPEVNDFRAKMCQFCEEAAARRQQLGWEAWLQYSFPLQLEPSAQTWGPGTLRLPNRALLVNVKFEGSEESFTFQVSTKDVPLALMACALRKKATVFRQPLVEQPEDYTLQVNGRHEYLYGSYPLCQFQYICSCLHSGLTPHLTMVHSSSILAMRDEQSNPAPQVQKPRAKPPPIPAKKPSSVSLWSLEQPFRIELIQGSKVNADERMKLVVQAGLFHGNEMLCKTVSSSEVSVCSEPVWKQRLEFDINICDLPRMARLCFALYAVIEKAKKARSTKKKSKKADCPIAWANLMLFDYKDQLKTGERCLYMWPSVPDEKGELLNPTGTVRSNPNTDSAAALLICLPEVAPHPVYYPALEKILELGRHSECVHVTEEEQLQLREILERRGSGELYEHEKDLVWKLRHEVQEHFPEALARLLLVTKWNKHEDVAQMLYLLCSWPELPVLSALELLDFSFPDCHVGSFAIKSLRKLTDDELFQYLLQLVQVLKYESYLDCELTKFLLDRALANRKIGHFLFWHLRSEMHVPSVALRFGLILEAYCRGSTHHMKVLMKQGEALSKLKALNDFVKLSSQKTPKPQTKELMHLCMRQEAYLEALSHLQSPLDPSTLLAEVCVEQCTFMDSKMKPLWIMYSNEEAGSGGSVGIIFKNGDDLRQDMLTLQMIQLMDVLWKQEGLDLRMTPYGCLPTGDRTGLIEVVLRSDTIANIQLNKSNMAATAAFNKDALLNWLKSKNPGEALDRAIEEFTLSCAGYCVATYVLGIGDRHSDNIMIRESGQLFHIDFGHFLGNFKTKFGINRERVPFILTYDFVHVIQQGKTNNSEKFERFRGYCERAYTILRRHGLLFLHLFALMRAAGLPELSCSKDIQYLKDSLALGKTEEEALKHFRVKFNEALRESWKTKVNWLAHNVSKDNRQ
Put plainly: Inhibition of recombinant human PI3Kdelta using PIP2/ATP as substrate preincubated for 20 mins followed by substrate addition measured after 80 mins by Kinase-Glo plus assay.

For data set [8], the target named is Phosphatidylinositol 4,5-bisphosphate 3-kinase catalytic subunit gamma isoform (Homo sapiens, UniProt P48736). Put plainly: Inhibition of recombinant human PI3Kgamma using PIP2/ATP as substrate preincubated for 20 mins followed by substrate addition measured after 80 mins by Kinase-Glo plus assay.
Data set [9] deals with Serine/threonine-protein kinase mTOR (Homo sapiens, UniProt P42345). Put plainly: Inhibition of m-TOR (unknown origin).
Data set [10] addresses Dual specificity tyrosine-phosphorylation-regulated kinase 1A (Homo sapiens) (UniProt Q13627). Put plainly: Inhibition of DYRK1A (unknown origin) at 1 uM preincubated for 5 mins with enzyme and substrate followed by ATP addition relative to control.
The target of data set [11] is Glycogen synthase kinase-3 beta (Homo sapiens) (UniProt P49841). The data set is described as follows: Inhibition of GSK-3beta (unknown origin) at 1 uM preincubated for 5 mins with enzyme and substrate followed by ATP addition relative to control.
The target of data set [12] is Receptor-interacting serine/threonine-protein kinase 2 (Homo sapiens) (UniProt O43353). The data set is described as follows: Inhibition of RIPK2 (unknown origin) at 1 uM preincubated for 5 mins with enzyme and substrate followed by ATP addition relative to control.

T2 sequence (P42336 whole entry, canonical isoform): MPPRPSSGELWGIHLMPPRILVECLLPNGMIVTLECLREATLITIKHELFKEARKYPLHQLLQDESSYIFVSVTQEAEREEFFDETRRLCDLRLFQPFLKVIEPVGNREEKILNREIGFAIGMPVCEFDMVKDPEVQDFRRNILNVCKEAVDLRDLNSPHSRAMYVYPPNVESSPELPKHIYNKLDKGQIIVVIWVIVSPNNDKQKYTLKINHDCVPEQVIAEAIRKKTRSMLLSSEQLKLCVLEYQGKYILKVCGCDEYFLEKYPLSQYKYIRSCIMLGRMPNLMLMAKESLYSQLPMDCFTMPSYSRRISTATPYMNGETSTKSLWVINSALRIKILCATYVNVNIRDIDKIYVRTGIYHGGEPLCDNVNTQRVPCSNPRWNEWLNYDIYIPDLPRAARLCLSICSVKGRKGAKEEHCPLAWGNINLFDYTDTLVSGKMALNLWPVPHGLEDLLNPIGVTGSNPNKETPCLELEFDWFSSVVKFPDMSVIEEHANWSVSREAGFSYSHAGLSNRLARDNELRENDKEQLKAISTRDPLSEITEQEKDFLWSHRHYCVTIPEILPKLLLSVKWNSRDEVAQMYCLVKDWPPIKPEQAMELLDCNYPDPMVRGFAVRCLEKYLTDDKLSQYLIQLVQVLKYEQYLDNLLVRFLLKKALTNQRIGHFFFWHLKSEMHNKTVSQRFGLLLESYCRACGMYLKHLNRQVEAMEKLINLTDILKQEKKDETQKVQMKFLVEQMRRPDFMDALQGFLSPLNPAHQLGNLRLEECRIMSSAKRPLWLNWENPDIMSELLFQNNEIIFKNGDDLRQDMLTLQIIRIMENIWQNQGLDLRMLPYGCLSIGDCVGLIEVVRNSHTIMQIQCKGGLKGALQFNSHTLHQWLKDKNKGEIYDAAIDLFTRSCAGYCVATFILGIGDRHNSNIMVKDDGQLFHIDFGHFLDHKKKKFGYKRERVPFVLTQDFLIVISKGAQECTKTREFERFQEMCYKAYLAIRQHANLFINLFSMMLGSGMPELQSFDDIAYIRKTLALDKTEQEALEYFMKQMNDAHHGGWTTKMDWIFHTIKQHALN
Chain of Vascular endothelial growth factor receptor 2 (P35968 whole entry, canonical isoform): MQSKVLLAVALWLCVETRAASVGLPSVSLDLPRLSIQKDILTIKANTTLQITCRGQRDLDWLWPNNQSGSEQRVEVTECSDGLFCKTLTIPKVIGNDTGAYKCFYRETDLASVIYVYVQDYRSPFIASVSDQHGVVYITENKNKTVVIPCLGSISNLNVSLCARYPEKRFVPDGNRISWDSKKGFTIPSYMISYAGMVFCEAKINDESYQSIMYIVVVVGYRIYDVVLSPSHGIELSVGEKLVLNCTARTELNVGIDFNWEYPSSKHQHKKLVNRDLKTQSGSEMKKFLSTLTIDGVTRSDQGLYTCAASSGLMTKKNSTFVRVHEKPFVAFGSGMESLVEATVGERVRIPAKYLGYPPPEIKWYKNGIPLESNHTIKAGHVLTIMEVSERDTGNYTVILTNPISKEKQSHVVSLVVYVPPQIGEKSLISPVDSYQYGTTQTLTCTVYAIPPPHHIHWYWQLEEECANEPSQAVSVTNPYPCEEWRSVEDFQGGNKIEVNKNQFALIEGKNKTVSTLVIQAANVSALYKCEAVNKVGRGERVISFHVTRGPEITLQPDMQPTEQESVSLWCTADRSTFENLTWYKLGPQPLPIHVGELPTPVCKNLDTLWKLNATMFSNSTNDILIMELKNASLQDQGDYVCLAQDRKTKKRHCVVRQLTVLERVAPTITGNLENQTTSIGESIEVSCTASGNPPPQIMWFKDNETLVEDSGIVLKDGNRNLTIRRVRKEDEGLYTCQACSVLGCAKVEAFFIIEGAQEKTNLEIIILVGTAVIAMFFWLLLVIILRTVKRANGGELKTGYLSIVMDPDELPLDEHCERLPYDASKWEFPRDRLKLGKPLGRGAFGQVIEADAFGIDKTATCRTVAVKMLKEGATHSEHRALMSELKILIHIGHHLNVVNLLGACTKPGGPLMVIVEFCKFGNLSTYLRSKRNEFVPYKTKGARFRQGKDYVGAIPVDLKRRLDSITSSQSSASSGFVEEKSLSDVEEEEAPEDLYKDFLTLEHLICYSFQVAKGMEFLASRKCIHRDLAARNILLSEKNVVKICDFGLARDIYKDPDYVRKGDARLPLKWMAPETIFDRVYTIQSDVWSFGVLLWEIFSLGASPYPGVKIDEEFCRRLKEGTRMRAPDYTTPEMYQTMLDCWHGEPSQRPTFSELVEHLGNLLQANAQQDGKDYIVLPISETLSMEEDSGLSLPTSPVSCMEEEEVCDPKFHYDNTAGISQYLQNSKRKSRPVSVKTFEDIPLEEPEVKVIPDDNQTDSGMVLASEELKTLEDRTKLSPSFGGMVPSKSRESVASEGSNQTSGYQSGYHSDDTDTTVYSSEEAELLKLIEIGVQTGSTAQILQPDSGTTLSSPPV
T1 sequence (P42338 whole entry, canonical isoform): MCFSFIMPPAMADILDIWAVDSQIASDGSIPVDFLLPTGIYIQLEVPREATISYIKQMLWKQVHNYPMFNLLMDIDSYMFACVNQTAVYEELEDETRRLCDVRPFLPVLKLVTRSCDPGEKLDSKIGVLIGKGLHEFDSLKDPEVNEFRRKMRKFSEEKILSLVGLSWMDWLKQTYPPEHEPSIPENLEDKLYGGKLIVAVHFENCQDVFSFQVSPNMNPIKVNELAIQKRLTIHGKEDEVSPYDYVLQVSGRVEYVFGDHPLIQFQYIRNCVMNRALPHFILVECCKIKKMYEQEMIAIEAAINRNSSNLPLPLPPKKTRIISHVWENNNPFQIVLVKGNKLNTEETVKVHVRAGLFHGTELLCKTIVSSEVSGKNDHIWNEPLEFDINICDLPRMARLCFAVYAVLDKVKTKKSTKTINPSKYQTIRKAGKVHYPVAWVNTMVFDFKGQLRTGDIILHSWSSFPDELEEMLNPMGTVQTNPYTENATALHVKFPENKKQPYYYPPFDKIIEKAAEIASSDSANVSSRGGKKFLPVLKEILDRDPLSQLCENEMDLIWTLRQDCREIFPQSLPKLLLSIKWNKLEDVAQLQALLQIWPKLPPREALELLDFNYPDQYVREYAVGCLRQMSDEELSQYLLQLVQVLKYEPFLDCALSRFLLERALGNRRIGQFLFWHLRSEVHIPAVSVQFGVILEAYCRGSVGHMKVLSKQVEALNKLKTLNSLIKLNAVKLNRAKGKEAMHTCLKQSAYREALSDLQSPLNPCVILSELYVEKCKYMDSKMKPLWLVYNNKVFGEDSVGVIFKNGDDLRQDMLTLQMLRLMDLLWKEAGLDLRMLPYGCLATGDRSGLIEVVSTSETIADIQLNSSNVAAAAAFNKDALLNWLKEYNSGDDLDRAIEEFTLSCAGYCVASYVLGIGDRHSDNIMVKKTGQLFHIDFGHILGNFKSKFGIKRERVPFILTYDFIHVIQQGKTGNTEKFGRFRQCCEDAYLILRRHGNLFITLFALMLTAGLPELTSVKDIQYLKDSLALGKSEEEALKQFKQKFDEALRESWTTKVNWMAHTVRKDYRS
Chain of Phosphatidylinositol 4,5-bisphosphate 3-kinase catalytic subunit gamma isoform (P48736 whole entry, canonical isoform): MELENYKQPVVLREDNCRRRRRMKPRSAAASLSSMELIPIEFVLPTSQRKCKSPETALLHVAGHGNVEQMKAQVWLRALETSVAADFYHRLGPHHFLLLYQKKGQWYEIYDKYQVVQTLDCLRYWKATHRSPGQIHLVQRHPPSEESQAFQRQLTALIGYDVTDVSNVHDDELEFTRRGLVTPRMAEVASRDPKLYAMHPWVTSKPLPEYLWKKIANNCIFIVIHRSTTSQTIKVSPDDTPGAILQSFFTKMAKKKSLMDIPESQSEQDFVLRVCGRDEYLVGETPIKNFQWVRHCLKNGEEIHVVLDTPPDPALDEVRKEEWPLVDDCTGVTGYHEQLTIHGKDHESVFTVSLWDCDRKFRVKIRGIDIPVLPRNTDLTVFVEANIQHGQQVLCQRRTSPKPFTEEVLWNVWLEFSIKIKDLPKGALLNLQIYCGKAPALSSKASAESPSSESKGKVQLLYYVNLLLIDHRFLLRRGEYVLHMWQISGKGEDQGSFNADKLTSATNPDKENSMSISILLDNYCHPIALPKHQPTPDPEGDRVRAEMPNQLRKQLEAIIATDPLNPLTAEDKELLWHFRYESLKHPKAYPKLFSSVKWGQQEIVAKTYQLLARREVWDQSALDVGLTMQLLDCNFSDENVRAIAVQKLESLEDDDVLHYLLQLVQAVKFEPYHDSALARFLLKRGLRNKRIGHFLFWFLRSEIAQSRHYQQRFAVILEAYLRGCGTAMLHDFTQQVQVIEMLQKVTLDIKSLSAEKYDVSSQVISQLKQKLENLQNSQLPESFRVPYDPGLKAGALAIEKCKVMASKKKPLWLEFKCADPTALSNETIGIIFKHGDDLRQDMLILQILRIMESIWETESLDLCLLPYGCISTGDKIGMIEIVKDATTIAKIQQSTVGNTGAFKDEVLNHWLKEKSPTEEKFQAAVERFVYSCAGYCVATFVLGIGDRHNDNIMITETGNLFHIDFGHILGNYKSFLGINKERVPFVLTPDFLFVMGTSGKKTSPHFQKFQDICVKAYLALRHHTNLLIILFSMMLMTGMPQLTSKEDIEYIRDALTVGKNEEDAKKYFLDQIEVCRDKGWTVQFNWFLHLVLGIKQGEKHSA
Chain of Glycogen synthase kinase-3 beta (Homo sapiens) (P49841 whole entry, looked up): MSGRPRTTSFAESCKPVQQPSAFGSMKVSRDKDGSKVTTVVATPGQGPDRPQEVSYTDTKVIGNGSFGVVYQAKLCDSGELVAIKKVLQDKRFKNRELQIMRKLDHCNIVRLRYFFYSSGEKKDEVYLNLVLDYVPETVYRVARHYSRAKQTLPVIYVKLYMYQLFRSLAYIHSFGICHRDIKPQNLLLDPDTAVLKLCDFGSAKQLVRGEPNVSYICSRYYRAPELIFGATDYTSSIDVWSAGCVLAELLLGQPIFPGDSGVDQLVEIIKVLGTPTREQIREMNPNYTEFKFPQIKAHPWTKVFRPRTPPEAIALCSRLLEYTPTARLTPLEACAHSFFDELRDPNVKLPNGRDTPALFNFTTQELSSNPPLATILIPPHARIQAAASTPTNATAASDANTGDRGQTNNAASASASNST

Take `CN(C)CC(=O)N1CCC(n2ccc(-c3cnc(N)c(-n4nnc5ccccc54)n3)n2)CC1`: the IC50 came out at 170 nM in [1]; 10000 nM in data set [2]; 27 nM in [4]; 1700 nM in data set [5]; 250 nM in data set [6]. Moreover, the logD at 0.5 h in [3] stood at 1.8.
As to `CN(C)CC(=O)N1CCC(c2cc(-c3cnc(N)c(-n4nnc5ccccc54)n3)n(C)n2)CC1`, the IC50 in data set [1] worked out at 90 nM; in data set [2], 4300 nM; in data set [4] it was 6 nM; in data set [5], 380 nM; in data set [6] it was 91 nM. In data set [3], this compound returned a logD at 0.5 h of 1.8.
For `CN(C)CC(=O)N1CCC(c2nc(-c3cnc(N)c(-n4nnc5ccccc54)n3)nn2C)CC1`, the IC50 in [1] was determined as 1200 nM; in [2], 12000 nM; in data set [4] it was 280 nM; in [5] it was 2400 nM; in data set [6], 3900 nM. Moreover, the logD at 0.5 h in [3] amounted to 1.
Take `CN(C)CC(=O)N1CCC(n2cc(-c3cnc(N)c(-n4nnc5ccccc54)n3)cn2)CC1`: the IC50 in [1] was found to be 29 nM; in data set [2], 13000 nM; in data set [7] it was 20 nM; in data set [8] it was 280 nM; in data set [9], 15000 nM; in data set [4], 16 nM. In addition, the IC50 in data set [5] was 900 nM; in [6], 58 nM. For the same compound, in [3], the logD at 0.5 h stood at 1.7.
As to `CN(C)CC(=O)N1CCC(c2cn(C)c(-c3cnc(N)c(-n4nnc5ccccc54)n3)n2)CC1`, the IC50 in data set [1] turned out to be 6600 nM; in data set [2], 7900 nM; in data set [4] it was 64 nM; in data set [5], 1300 nM; in data set [6], 690 nM. In data set [3], this compound came in with a logD at 0.5 h of 1.3.
In the case of `CN(C)CC(=O)N1CCC(c2nc(-c3cnc(N)c(-n4nnc5ccccc54)n3)n(C)n2)CC1`, the IC50 in [1] was 9000 nM; in [2], 6900 nM; in [7] it was 17 nM; in [8] it was 650 nM; in [9], 21000 nM; in data set [4], 29 nM. The IC50 was 1000 nM in data set [5] and 270 nM in [6]. Further, the logD at 0.5 h in data set [3] was determined as 0.9. Besides, the inhibition in data set [10], in data set [11] and in data set [12] was 60% throughout.
Consider `CN(C)CC(=O)N1CCC(n2ncc(-c3cnc(N)c(-n4nnc5ccccc54)n3)n2)CC1`, for which the IC50 came out at 210 nM in data set [1]; 7800 nM in data set [2]; 21 nM in data set [4]; 650 nM in data set [5]; 140 nM in [6]. Also, the logD at 0.5 h in [3] was 1.9.

What is called IC50 is the concentration that gives 50% inhibition. One may read the logD as lipophilicity at a set pH, counting ionised and neutral species. Read a high logD as higher lipophilicity. A word on the inhibition: it is the percentage by which the read-out fell short of the control.

Values taken from ChEMBL document CHEMBL3588784, “Design of selective PI3Kα inhibitors starting from a promiscuous pan kinase scaffold” (Bioorg Med Chem Lett, 2015).
